The source made the active and inactive calls.
Experiments:
[1] = target: 1-acylglycerol-3-phosphate O-acyltransferase ABHD5/Perilipin-5 (Homo sapiens, UniProt Q00G26+Q8WTS1); assay: Luminescence-based biochemical high throughput dose response assay for inhibitors of the interaction of the lipase co-activator protein, abhydrolase domain containing 5 (ABHD5) with perilipin-5 (MLDP; PLIN5) (2K validation set). [Related pubchem assays (depositor defined):AID493035, AID493241]
Perilipin-1/ABHD5 = Perilipin-1/ABHD5 (Homo sapiens, UniProt O60240+Q8WTS1); assay: Luminescence-based biochemical high throughput dose response assay for inhibitors of the interaction of the lipase co-activator protein, abhydrolase domain containing 5 (ABHD5) with perilipin-1 (PLIN1) (2K validation set). [Related pubchem assays (depositor defined):AID493027, AID493057]
Phosphomannomutase 2 = Phosphomannomutase 2 (Homo sapiens, UniProt O15305); assay: Counter screen SAR assay for PMM2 inhibitors via a fluorescence intensity assay. [Related pubchem assays (depositor defined):AID1545, AID1574]
[2] = target: T1, Mannose-6-phosphate isomerase (Homo sapiens, UniProt P34949); assay: PMI enzyme inhibitors, confirmation, biochemical, fluorescence intensity (AID 1535)
T1 sequence (P34949 whole entry): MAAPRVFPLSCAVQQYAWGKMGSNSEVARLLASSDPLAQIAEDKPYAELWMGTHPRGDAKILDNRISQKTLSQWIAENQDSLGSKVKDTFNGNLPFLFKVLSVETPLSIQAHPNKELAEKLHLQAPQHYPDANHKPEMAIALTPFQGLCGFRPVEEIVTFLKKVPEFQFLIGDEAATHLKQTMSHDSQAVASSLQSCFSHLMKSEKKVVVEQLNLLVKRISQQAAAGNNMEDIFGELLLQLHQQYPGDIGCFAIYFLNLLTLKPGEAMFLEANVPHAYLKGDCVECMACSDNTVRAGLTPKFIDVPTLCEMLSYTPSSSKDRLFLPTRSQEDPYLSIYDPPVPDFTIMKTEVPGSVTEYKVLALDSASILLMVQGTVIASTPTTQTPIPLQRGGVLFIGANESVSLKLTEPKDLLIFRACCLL

[3] = target: T2, Small ubiquitin-related modifier 2 (Homo sapiens, UniProt P61956); assay: SUMO2–SIM peptide binding inhibitors, dose response, selectivity assay for SUMO1 interaction inhibitor project, biochemical, fluorescence polarization, uHTS hits (AID 624385); assay type: functional; conditions: read-out: IC50_Mean
Vero = Vero cell cytotoxicity, cytotoxicity control for flavivirus capping enzyme inhibitors (AID 588742); assay type: functional; conditions: Chlorocebus sabaeus
[4] = HIV-1 Env-mediated cell fusion inhibitors, dose response, CCR5-tropic Env (AID 2279); assay type: functional
Protein RecA = target: T3, Protein RecA (Mycobacterium tuberculosis, UniProt P9WHJ3); assay: Fluorescence Cell-Free Homogeneous Dose Retest to Identify Inhibitors of RecA-Intein Splicing Activity. [Related pubchem assays (depositor defined):AID2097, AID2223, AID489010, AID492950]; assay type: functional
T3 sequence (P9WHJ3 whole entry): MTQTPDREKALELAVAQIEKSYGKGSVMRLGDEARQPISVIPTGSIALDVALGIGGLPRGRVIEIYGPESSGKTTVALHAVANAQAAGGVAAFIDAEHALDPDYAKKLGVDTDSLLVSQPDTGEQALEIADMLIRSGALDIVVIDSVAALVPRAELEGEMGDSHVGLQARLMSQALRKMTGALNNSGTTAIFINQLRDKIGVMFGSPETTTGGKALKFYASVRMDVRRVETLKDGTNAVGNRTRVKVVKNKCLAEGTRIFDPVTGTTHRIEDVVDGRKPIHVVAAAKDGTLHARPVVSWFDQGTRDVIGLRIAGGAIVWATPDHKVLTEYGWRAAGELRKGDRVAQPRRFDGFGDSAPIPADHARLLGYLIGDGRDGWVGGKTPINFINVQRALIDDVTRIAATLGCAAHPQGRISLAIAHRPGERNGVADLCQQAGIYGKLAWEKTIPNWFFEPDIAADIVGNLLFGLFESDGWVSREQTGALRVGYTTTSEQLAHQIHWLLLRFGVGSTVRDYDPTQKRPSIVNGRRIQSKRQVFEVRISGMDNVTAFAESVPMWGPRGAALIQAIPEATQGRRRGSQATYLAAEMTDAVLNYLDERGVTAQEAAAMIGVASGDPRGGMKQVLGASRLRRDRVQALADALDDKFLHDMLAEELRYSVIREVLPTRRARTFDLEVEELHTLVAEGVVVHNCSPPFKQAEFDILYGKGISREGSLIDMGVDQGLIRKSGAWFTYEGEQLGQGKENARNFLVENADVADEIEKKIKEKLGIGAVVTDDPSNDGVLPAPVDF

[5] = target: Dual specificity tyrosine-phosphorylation-regulated kinase 1A (Rattus norvegicus, UniProt Q63470); assay type: biochemical, Homo sapiens
Troponin, cardiac muscle = Troponin, cardiac muscle (Homo sapiens, UniProt P19429+P45379+P63316); assay: inhibitors of cardiac thin filament calcium sensitivity, dose response, biochemical, fluorescence, cardiac regulated thin filaments, triplicate IC50 (AID 504742); assay type: protein-complex assay
[6] = target: T4, Replicative DNA helicase DnaB (Mycobacterium tuberculosis, UniProt P9WMR3); assay: DnaB intein splicing inhibitors, dose response, biochemical, cell-free fluorescence (AID 449749); assay type: functional
T4 sequence (P9WMR3 whole entry): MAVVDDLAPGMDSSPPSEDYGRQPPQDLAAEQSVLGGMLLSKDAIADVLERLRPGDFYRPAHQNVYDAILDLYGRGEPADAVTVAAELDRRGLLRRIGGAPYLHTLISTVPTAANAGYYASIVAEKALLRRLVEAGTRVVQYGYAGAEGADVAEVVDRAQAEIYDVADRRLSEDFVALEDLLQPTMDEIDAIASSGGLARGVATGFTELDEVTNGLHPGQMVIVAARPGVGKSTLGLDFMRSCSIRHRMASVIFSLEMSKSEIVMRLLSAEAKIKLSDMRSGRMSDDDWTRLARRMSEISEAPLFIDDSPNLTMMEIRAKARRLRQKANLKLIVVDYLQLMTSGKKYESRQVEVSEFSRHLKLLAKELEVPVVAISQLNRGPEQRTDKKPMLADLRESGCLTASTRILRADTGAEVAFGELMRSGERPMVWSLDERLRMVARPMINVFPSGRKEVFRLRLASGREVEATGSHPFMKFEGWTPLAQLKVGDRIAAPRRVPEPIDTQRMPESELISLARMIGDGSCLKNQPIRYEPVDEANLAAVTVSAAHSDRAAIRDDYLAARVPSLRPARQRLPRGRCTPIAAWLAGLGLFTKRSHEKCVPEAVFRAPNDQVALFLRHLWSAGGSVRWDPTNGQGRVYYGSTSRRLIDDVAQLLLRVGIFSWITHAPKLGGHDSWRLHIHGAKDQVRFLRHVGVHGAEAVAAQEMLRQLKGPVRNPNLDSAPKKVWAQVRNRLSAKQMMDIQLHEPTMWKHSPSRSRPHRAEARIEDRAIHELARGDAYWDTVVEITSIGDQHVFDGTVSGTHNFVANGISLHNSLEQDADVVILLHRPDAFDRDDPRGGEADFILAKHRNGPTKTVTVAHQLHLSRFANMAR

Genome polyprotein = Genome polyprotein (dengue virus type 2, UniProt P29990); assay: Dengue-2 NS5 methyltransferase inhibitors, primary screen, biochemical, confirmation dose response (AID 588689); assay type: functional
[7] = target: T5, Small ubiquitin-related modifier 1 (Homo sapiens, UniProt P63165); assay: inhibitors of SUMO1 peptide binding, dose response, biochemical, fluorescence polarization, uHTS hits (AID 624382); assay type: functional; conditions: read-out: IC50_Mean
[8] = target: T2, Small ubiquitin-related modifier 2; assay: inhibitors of SUMO2 protein-protein interaction, dose response, selectivity assay for SUMO1 interaction inhibitor project, biochemical, FRET, human SUMO2, uHTS hits (AID 624384); assay type: functional; conditions: read-out: IC50_Mean
[9] = target: T5, Small ubiquitin-related modifier 1; assay: inhibitors of SUMO1 partner interactions, dose response, biochemical, FRET (AID 624383); assay type: functional; conditions: read-out: IC50_Mean
Mu-type opioid receptor = Mu-type opioid receptor (Homo sapiens, UniProt P35372); assay: SAR Analysis of Antagonists of the MOR Receptor using an Image-Based Assay - Set 3. [Related pubchem assays (depositor defined):AID1777, AID1785, AID1786, AID1966, AID2133, AID2136, AID2284, AID2285, AID2420]; assay type: functional
[10] = target: Delta-type opioid receptor (Homo sapiens, UniProt P41143); assay: SAR Analysis of Antagonists of the DOR Receptor using an Image-Based Assay - Set 3. [Related pubchem assays (depositor defined):AID1777, AID1785]; assay type: functional;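 also: U2OS cells expressing DOR1 and beta-arrestin GFP stimulated with 100 nM SNC80; imaging of GFP-tagged beta-arrestin moving into spots after receptor activation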
[11] = target: T6, Kappa-type opioid receptor (Homo sapiens, UniProt P41145); assay: SAR analysis of small molecule antagonists of the kappa opioid receptor via a luminescent beta-arrestin assay - Set 3. [Related pubchem assays (depositor defined):AID1777, AID1778, AID1785, AID1786, AID1966, AID2133, AID2136, AID2285, AID2495]; assay type: functional
[12] = target: T6, Kappa-type opioid receptor; assay: SAR analysis of Antagonists of the Kappa Opioid Receptor (KOR) using an Image-Based Assay - Set 3. [Related pubchem assays (depositor defined):AID1777, AID1785]; assay type: functional
[13] = target: T6, Kappa-type opioid receptor; assay: SAR analysis of Antagonists of the Kappa Opioid Receptor (KOR) using an Image-Based Assay - Set 4. [Related pubchem assays (depositor defined):AID1777, AID1785]; assay type: functional
[14] = target: T6, Kappa-type opioid receptor; assay: SAR analysis of small molecule antagonists of the kappa opioid receptor via a luminescent beta-arrestin assay - Set 6. [Related pubchem assays (depositor defined):AID1777, AID1778, AID1785, AID1786, AID1966, AID2133, AID2136, AID2285]; assay type: functional
Integrin alpha-L = Integrin alpha-L (Mus musculus, UniProt P24063); assay: modulators of CD8 T cell-vesicle binding, dose response, powder samples, mouse 2C CD8+ cells (AID 504565); assay type: functional
Hexokinase = Hexokinase (Trypanosoma brucei, UniProt Q38C41); assay: Confirmation assay for inhibitors of Trypanosoma brucei hexokinase 1-Analogue-first series. [Related pubchem assays (depositor defined):AID1430, AID1632, AID2516, AID2560, AID2579, AID2600, AID449725, AID492951]; assay type: functional
CAAX prenyl protease 2 = CAAX prenyl protease 2 (Saccharomyces cerevisiae S288c, UniProt Q03530); assay type: biochemical
[15] = target: Alkaline phosphatase, placental type (Homo sapiens, UniProt P05187); assay: PLAP enzyme inhibitors, confirmation, biochemical, luminescence (AID 1512); assay type: functional
[16] = target: T7, Alkaline phosphatase, tissue-nonspecific isozyme (Homo sapiens, UniProt P05186); assay: human TNAP enzyme inhibitors, SAR follow-up, biochemical, luminescent, dose response (AID 1056)
T7 sequence (P05186 whole entry): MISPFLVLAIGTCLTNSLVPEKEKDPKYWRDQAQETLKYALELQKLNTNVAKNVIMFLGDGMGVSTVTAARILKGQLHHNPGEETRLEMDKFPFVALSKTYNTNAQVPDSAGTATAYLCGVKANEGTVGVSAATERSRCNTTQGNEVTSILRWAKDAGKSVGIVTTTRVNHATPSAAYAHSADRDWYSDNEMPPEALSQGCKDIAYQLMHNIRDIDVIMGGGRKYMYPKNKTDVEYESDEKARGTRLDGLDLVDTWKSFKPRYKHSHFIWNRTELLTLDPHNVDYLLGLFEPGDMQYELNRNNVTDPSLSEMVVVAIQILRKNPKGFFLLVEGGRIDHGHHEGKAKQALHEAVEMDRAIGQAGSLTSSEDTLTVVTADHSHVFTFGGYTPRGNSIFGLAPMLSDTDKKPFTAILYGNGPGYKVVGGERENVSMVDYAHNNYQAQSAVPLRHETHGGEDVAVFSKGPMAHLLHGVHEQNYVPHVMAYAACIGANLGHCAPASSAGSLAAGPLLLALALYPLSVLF

In the case of `O=C(CN1CC[n+]2c(-c3cccs3)csc21)c1ccc(Br)cc1`, the IC50 [1] is reported as 14.8 µM (inactive) and the IC50 (Perilipin-1/ABHD5) is reported as 27.5 µM (inactive).

For `Cc1csc(-n2sc3ccccc3c2=O)n1`, the IC50 (Phosphomannomutase 2) was > 100 µM (inactive) and the IC50 [2] was > 50 µM (inactive).

With `O=[N+]([O-])c1cc([N+](=O)[O-])c2oc(-c3ccccc3)c(Br)c2c1O` the IC50 [3] was 3.44 µM (active), the CC50 (Vero) was 17.9 µM (active) and the IC50 [4] was 16.3 µM (active). The EC50 (Protein RecA) was 111 µM (active), the AC50 [5] was 1.94 µM (active) and the IC50 (Troponin, cardiac muscle) was > 23.8 µM (inactive). The AC50 [6] was 3.08 µM (active), the IC50 (Genome polyprotein) was 43.8 µM (active) and the IC50 [7] was 4.09 µM (active). The IC50 [8] was > 66 µM (inactive) and the IC50 [9] was 50.9 µM (inactive).

In the case of `CCN(CCNC(=O)c1ccc(CNS(=O)(=O)c2ccc(OC)cc2)cc1)Cc1ccccc1`, the IC50 (Mu-type opioid receptor) is reported as 12.6 µM (inactive), the IC50 [10] is reported as > 32 µM (inactive) and the IC50 [11] is reported as 16.3 µM (inactive). The IC50 [12] was 10.8 µM (inactive).

For `Cc1ccnc2c1n1cccc1c(=O)n2CC(=O)NCCCN1CCN(c2ccc(Cl)cc2)CC1`, the IC50 [13] was 0.0696 µM (active), the IC50 [14] was 1.01 µM (active) and the IC50 (Mu-type opioid receptor) was > 32 µM (inactive). The IC50 [10] was > 32 µM (inactive) and the IC50 [11] was 0.363 µM (active).

In the case of `Cc1ccccc1C(=O)N1CCC(C(=O)Nc2ccc(C)c(S(=O)(=O)N3CCCCC3)c2)CC1`, the EC50 (Integrin alpha-L) is reported as 29.1 µM (inactive).

With `CC(C)(C)c1ccc(C(=O)Nc2cc(Cl)ccc2-c2nnn[nH]2)cc1` the IC50 (Hexokinase) was 3.46 µM (active).

With `O=C(CCNC(=O)N1CC(=O)Nc2ccccc21)NCCc1cccc(F)c1` the AC50 (CAAX prenyl protease 2) was 0.359 µM (active).

With `O=C(NC1(C(Cl)(Cl)Cl)Oc2ccccc2O1)OCN1C(=O)C2C=CC=CC2C1=O` (centres undefined) the IC50 [15] was > 100 µM (inactive) and the IC50 [16] was > 100 µM (inactive).

Source: ChEMBL document CHEMBL1201862, “PubChem BioAssay data set” (2004)
